Data as given in patent publication US12624039B2, “BTK inhibitors” (DIZAL (JIANGSU) PHARMACEUTICAL CO., LTD., priority 2020, dated 2026).
Converted amounts (≈) assume the structure as drawn. Where two headings read alike, the source gives them in different places.

Assays:
[1] = In vitro human hepatocytes clearance assay; type: in vitro ADME
Procedure: (§1) In Vitro Rat/Human Hepatocytes Clearance Assay
(§2) Rat hepatocytes in male gender and human hepatocytes in mixed gender were obtained from commercial vendors (e.g., BioreclamationIVT) and stored at −150° C. prior to use. 10 mM stock solutions of tested compounds were prepared in DMSO. Thawing medium and supplement incubation medium (serum-free) were placed in a 37° C. water bath for at least 15 minutes prior to use. Stock solutions were diluted to 100 μM by combining 198 μL acetonitrile and 2 μL of 10 mM stock solution.
(§3) Vials of cryopreserved hepatocytes were removed from storage, ensured that vials remain at cryogenic temperatures. The vials were thawed in a 37° C. water bath with gently shaking. Vials were kept in a water bath until all ice crystals had dissolved and were no longer visible. Vials were sprayed with 70% ethanol before being transferred to a biosafety cabinet. And then the contents were poured into the 50 mL thawing medium conical tube. Vials were centrifuged at 100 g for 10 minutes at room temperature. Thawing medium was aspirated and hepatocytes were resuspended with serum-free incubation medium to yield ^˜1.5×10^6 cells/mL.
(§4) Cell viability and density were counted using a Trypan Blue exclusion, and then cells were diluted with serum-free incubation medium to a working cell density of 1×10^6 viable cells/ml. A portion of the hepatocytes at 1×10^6 viable cells/mL was boiled for 10 min prior to adding to the plate as negative control to eliminate the enzymatic activity so that little or no substrate turnover should be observed. The inactivated hepatocytes were used to prepare negative samples, which were used to exclude the misleading factor that resulted from instability of chemical itself.
(§5) Aliquots of 247.5 μL hepatocytes were dispensed into each well of a 96-well non-coated plate. The plate was placed in the incubator on an orbital shaker for approximately 10 minutes. Aliquots of 2.5 μL of the 100 μM test compounds were added into respective wells of the non-coated 96-well plate to start the reaction. This assay was performed in duplicate. The plate was incubated in the incubator on an orbital shaker for the designed time points. 20 μL of contents were transferred and mixed with 6 volumes (120 μL) of cold acetonitrile with internal standard to terminate the reaction at time points of 5, 15, 30, 45, 60, 80 and 100 minutes. Samples were centrifuges for 20 minutes at 4000 g and aliquots of 100 μl of the supernatants were used for LC-MS/MS analysis for measurement of test compounds.
(§6) In vitro hepatocyte clearance was estimated based on determination of elimination half-life (T1/2) of compounds disappearance from their initial concentrations. Peak area ratios of each compound (test or control) to IS was calculated. Ln (% Control) versus Incubation Time (min) curve was plotted, and the slope of a linear fitting line was calculated. Drug elimination rate constant k (min-1), T1/2 (min), and in vitro intrinsic clearance CLint (μL/min/E6) was calculated according to the following equations: k=−slope T1/2=0.693/k CLint=k/Chep • Where Chep (cells×μL-1) is the cell concentration in the incubation system. Procedure for Log D Determination

[2] = target: T1, Recombinant BTK wild type (BTK WT) (Homo sapiens, UniProt Q06187); assay: BTK WT HTRF kinase assay; type: biochemical; settings: 30 min pre-incubation, 120 min reaction
T1 construct: purchased Thermo fisher
T1 sequence (Q06187 whole entry): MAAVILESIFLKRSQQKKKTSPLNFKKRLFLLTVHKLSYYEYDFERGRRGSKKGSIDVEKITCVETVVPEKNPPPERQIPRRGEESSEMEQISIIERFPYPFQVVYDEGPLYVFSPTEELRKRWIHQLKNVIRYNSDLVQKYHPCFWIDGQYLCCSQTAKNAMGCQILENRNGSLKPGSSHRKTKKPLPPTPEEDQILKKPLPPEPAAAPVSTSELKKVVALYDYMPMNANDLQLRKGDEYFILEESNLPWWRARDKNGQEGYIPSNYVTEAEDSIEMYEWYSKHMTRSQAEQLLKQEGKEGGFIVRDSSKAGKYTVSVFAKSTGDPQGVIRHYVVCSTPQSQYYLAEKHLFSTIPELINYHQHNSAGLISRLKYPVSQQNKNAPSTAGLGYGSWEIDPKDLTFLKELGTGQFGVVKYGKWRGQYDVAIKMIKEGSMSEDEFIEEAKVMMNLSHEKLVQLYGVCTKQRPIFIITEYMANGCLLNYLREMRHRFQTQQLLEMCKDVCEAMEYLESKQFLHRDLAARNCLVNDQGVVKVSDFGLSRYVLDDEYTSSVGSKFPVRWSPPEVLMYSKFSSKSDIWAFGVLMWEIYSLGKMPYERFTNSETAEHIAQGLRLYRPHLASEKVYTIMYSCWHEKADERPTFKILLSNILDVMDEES
Procedure: (§7) Recombinant BTK wild type (BTK WT) was purchased from Thermo fisher.
(§8) In brief, recombinant kinases were pre-incubated in the presence or absence of compound at room temperature for 30 minutes. The reaction was initiated by the addition of the ATP and substrate peptide which could be phosphorylated by kinases in the reaction. After 120 minutes incubation, the reaction was stopped by the addition of the detection reagent mix containing EDTA.

[3] = Protein binding in human plasma by equilibrium dialysis; type: in vitro ADME; settings: 18 hours at 37° C.; for hPPB (fu %): human plasma, 5 μM, fraction unbound; for fraction unbound at 18 h, 5 μM: human, plasma, pH 7.4, human plasma, read-out: hPPB (fu %)
Procedure: (§9) [formula] DF means the dilution factor. Procedure for Protein Binding Measurements in Human Plasma by Using Equilibrium Dialysis
Add 597 μL of blank plasma into each vial of a new plastic plate or separate plastic tube by addition of 3 μL of the working solution of each cassette, vortex at 1,000 rpm for 5 minutes. The final percent volume of organic solvent is 0.5% and the final concentration for test compound is 5 μM. Immediately transfer 50 μL of the spiked plasma suspension to a 96-well plate to act as T=0 control sample. The samples are treated the same as the samples after incubation. Place all remaining spiked plasma in the incubator for the duration of the study.
Place inserts open end up into the wells of the base plate. Add 500 μL of phosphate buffer (pH 7.4) to the buffer chamber, which is indicated by the white ring. Add 300 μL of spiked plasma sample into the sample chamber, which is indicated by the red ring. Cover the unit with gas permeable lid and incubate for 18 hours at 37° C. at 300 rpm with 5% CO2 on an orbital shaker in the CO2 incubator. At the end of incubation, remove lid and pipette 50 μL of post-dialysis samples from both buffer and plasma chambers into separated 96-well plate for analysis, respectively.
At the same time, the remaining spiked plasma sample in the plastic plate or separate plastic tube is incubated for 18 hours at 37° C. with 5% CO2 in the CO2 incubator. At T=18 hours, transfer 50 μL of the original spiked plasma suspension to the 96-well plate for analysis.
Add 50 μL of Human plasma to the buffer samples, and an equal volume of PBS to the collected plasma samples. Vortex the plate at 1,000 rpm for 2 minutes and add 400 μL of acetonitrile containing an appropriate internal standard (IS) to precipitate protein and release compound. Vortex at 1,000 rpm for 10 minutes. Centrifuge for 30 minutes at 4,000 rpm. Transfer 250 μl of the supernatant to new 96-well plates and centrifuge again (4,000 rpm, 30 minutes). Then transfer 100 μL of the supernatant to new 96-well plates for analysis. Add 100 μL of distilled water to each sample and vortex for 5 minutes at 1,000 rpm for analysis by LC-MS/MS. All compounds are tested in singlicate at 5 μM in human plasma.
All calculations are carried out using Microsoft Excel.
Calculate the percentage of unbound, percentage of bound and recovery of test compound as follows: […]

DMSO solubility = type: physicochemical
[4] = In vitro rat hepatocytes clearance assay; type: in vitro ADME
Procedure: as §1, §2, §3, §4, §5, §6

[5] = Log D determination (octanol/phosphate buffer); type: physicochemical; settings: 25° C.
Procedure: 10 μL of working solution of each cassette is placed in order into respective 96-well rack position (Log D plate). Add 500 μL of saturated octanol into each vial of the above cap-less Log D plate followed by the addition of 500 μL of saturated phosphate buffer. Seal with a moulded PTFE/SIL 96-Well Plate Cover.
The samples are centrifuged at 4,000 rpm at 25° C. for 30 minutes to separate the phases. Pipette and syringe are used to pipette about 100 μL from the octanol and buffer phases to a new 96-well plate, respectively.
5 μL of octanol sample is transferred to a new 96-well plate, followed by addition of 495 μL of a mixture of H2O and acetonitrile containing internal standard (1:1) as 100 fold octanol samples. Vortex for 5 minutes at 1,000 rpm.
50 μL of 100 fold samples are transferred to new 96-well plate, followed by addition of 450 μL of a mixture of H2O and acetonitrile containing internal standard (1:1) as 1,000 fold octanol samples. Vortex for 5 minutes at 1,000 rpm.
The 1,000 folds octanol samples are serially diluted into 10,000, 100,000 and 1,000,000 folds with a mixture of H2O and acetonitrile containing internal standard (1:1).
50 μL of buffer samples are transferred to new 96-well plate, followed by addition of 450 μL of a mixture of H2O and acetonitrile containing internal standard (1:1) as 10 folds buffer samples. Vortex for 5 minutes at 1,000 rpm.
The 10 folds buffer samples are serially diluted into 100, 1,000 and 10,000 folds with a mixture of H2O and acetonitrile containing internal standard (1:1). The samples are evaluated by LC/MS/MS analysis. All compounds are tested in singlicate.
All calculations are carried out using Microsoft Excel. The concentrations of test compound in octanol/buffer solution are evaluated by LC/MS/MS. Calculate the Log D value of the test compound as follows:
as §9

Hu Mic Clint = type: in vitro ADME, human; settings: for microsomal CLint: human, microsomes
Recombinant BTK(C481S) = target: T2, Recombinant BTK(C481S) (Homo sapiens, UniProt Q06187, C481S); assay: BTK C481S HTRF kinase assay; type: biochemical; settings: 30 min pre-incubation, 120 min reaction
T2 construct: purchased SignalChem
T2 sequence (Q06187 whole entry C481S): as the sequence (Q06187 whole entry) above, with C481S counted along it
Procedure: [The procedure below names another variant; the source lists this variant under the same test.] as §7, §8

[6] = phase I trial for multiple sclerosis (MS); cited from earlier work

Row | Structure (SMILES) | Human Hep Clint [1] | IC50 [2] | hPPB (fu %) [3] | solubility (DMSO solubility) | Rat Hep Clint [4] | logD [5] | Hu Mic Clint (Hu Mic Clint) | IC50 (Recombinant BTK(C481S)) | fraction unbound at 18 h, 5 μM [3] | solubility (DMSO solubility; kinetic from dmso stock) | logD at 2 h [5] | microsomal CLint (Hu Mic Clint) | tolerability [6]
1 | Nc1ncnn2c(C3CCC(CO)OC3)nc(-c3ccc(Oc4ccccc4)c(F)c3F)c12 (centres unmarked) [Compound 13, (5-(4-amino-5-(2,3-difluoro-4-phenoxyphenyl)imidazo[5,1-f][1,2,4]triazin-7-yl)tetrahydro-2H-pyran-2-yl)methanol] | 5.9 μL/min/10∧6 cells | 3.29 nM | 8.4% | 113 µM (≈ 51.2 µg/mL) | 21.4 μL/min/10∧6 cells | 3.21 | <3 µL/min/mg | 3.81 nM | – | – | – | – | –
2 | C=CC(=O)N1CCC[C@@H](n2c(=O)n(-c3ccc(Oc4ccccc4)cc3)c3c(N)nccc32)C1 [PRN2246] | – | – | – | – | – | – | – | – | – | – | – | – | well tolerated
3 | Nc1ncnn2c1c(-c1ccc(Oc3ccccc3)cc1F)nc2[C@H]1CC[C@H](CO)CC1 [reference compound] | 123.6 μL/min/10∧6 cells | – | – | – | 254.9 μL/min/10∧6 cells | – | – | – | 0.0257 | < 1.6 µM | 3.98 | 19.3 µL/min/mg | –

Second part, led by results:

Row | Human Hep Clint [1] | IC50 [2] | hPPB (fu %) [3] | solubility (DMSO solubility) | Rat Hep Clint [4] | logD [5] | Hu Mic Clint (Hu Mic Clint) | IC50 (Recombinant BTK(C481S)) | fraction unbound at 18 h, 5 μM [3] | solubility (DMSO solubility; kinetic from dmso stock) | logD at 2 h [5] | microsomal CLint (Hu Mic Clint) | Structure (SMILES) | tolerability [6]
4 | 2.1 μL/min/10∧6 cells | 6.72 nM | 6.4% | 84.0 µM (≈ 38.1 µg/mL) | 7.9 μL/min/10∧6 cells | 2.98 | <3 µL/min/mg | 6.11 nM | – | – | – | – | Nc1ncnn2c(C3CCC(CO)OC3)nc(-c3ccc(Oc4cccc(F)c4F)cc3)c12 (centres unmarked) [Compound 15, (5-(4-amino-5-(4-(2,3-difluorophenoxy)phenyl)imidazo[5,1-f][1,2,4]triazin-7-yl)tetrahydro-2H-pyran-2-yl)methanol] | –
5 | 92.9 μL/min/10∧6 cells | – | – | – | 119.3 μL/min/10∧6 cells | – | – | – | 0.0289 | < 1.6 µM | 4.16 | 141 µL/min/mg | Nc1nccn2c1c(-c1ccc(Oc3ccccc3)cc1)nc2[C@H]1CC[C@H](CO)CC1 [reference compound] | –
